{
  "source": "paper PMC4088988",
  "about": "(Bioorganic & medicinal chemistry, 2013)",
  "key": {"[1]": {"tested_on": "glucocorticoid response element (GRE)", "assay": "Transactivation assay, GRE-luciferase reporter in HEK-293 cells", "type": "cell-based", "conditions": "HEK-293 GRE-luciferase, 0.01 to 100 μg/ml, 6 h"}, "GR": {"target": "T1, GR (Homo sapiens, UniProt P04150)", "T1 sequence (P04150 1-777)": "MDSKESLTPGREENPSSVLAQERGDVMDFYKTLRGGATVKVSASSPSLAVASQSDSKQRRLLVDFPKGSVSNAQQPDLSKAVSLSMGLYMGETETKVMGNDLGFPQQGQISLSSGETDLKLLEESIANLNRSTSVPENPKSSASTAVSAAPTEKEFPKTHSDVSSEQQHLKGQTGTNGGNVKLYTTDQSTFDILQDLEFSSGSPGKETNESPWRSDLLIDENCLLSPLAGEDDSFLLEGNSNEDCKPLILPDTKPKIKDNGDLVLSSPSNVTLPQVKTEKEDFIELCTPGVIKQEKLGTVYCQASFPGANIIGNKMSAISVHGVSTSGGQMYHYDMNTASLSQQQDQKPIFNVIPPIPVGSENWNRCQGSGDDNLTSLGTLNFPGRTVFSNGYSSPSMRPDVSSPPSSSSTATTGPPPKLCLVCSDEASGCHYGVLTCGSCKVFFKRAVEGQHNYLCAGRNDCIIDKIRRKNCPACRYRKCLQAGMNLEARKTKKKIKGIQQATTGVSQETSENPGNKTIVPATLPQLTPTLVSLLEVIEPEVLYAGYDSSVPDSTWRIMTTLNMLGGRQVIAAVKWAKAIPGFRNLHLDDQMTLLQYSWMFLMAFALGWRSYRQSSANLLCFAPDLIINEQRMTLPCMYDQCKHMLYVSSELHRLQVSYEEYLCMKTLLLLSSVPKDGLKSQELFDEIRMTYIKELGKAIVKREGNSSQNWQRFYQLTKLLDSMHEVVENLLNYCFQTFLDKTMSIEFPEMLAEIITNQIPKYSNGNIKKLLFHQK", "assay": "GR Nuclear Translocation PathHunter assay", "type": "cell-based", "conditions": "for Rank GR translocation: rank among tested compounds; for GR translocation activity: Fig. 3"}, "[2]": {"tested_on": "glucocorticoid receptor (GR)", "conditions": "cited from earlier work"}, "[3]": {"tested_on": "mineralocorticoid receptor (MR)", "conditions": "cited from earlier work"}, "NF-κB": {"tested_on": "NF-κB", "type": "cell-based", "conditions": "C2C12 myoblasts and myotubes, Fig. 2/3"}, "[4]": {"assay": "Pharmacokinetics in CD1 mice, IV and PO", "type": "in vivo", "conditions": "for AUC0, total, unbound / Cmax, total, unbound: Table 4"}, "[5]": {"assay": "Pharmacokinetics in Sprague–Dawley rats, IV and PO", "type": "in vivo"}, "[6]": {"assay": "Pharmacokinetics in beagle dogs, IV and PO", "type": "in vivo"}, "[7]": {"assay": "Metabolic stability in rat liver microsomes", "type": "in vitro ADME", "conditions": "60 min, NADPH"}, "CYP1A2": {"tested_on": "CYP1A2", "assay": "CYP1A2 induction in human hepatocytes", "type": "in vitro ADME", "conditions": "three human hepatocyte donors, 1, 10, 100 μM, relative to omeprazole"}, "CYP3A4": {"tested_on": "CYP3A4", "assay": "CYP3A4 induction in human hepatocytes", "type": "in vitro ADME", "conditions": "three human hepatocyte donors, 1, 10, 100 μM, % of positive control rifampin"}, "Ames test": {"assay": "Ames test", "conditions": "Positive/negative"}, "Micronucleus test": {"assay": "Micronucleus test", "conditions": "Positive/negative"}, "[8]": {"assay": "Metabolite identification in human hepatocytes", "type": "in vitro ADME", "conditions": "10 μM, 2 and 4 h"}, "[9]": {"assay": "Metabolite identification in monkey hepatocytes", "type": "in vitro ADME", "conditions": "10 μM, 2 and 4 h"}, "[10]": {"assay": "Metabolite identification in dog hepatocytes", "type": "in vitro ADME", "conditions": "10 μM, 2 and 4 h"}, "[11]": {"assay": "Metabolite identification in rat hepatocytes", "type": "in vitro ADME", "conditions": "10 μM, 2 and 4 h"}, "[12]": {"conditions": "single administration, cited from earlier work"}, "[13]": {"conditions": "CD1 mice, IV 10 mg/kg, 10 mg/kg"}},
  "note": "Entries after “also recorded” stand apart in the source; their conditions may differ.",
  "data": [
    {"smiles": "C[C@]12C=CC(=O)C=C1CC[C@@H]1[C@@H]2C(=O)C[C@@]2(C)[C@H]1CC[C@]2(O)C(=O)CO", "note": "[Prednisone, reference compound]", "values": [
      {"measurement": "GRE-dependent gene transcription (luciferase)", "setting": "[1]", "result": "induced luciferase expression"}
    ]},
    {"smiles": "C[C@]12CCC(=O)C=C1CC[C@@H]1C2=CC[C@@]2(C)[C@H]1CC[C@]2(O)C(=O)CO", "note": "[VBP1]", "values": [
      {"measurement": "Rank GR translocation", "setting": "GR", "result": 6},
      {"measurement": "binding to the GR", "setting": "[2]", "result": "relatively high affinity binding"},
      {"measurement": "binding to the MR", "setting": "[3]", "result": "relatively high affinity binding"}
    ]},
    {"smiles": "C[C@@H]1C[C@H]2[C@@H]3CCC4=CC(=O)C=C[C@]4(C)C3=CC[C@]2(C)[C@H]1C(=O)CO", "note": "[VBP6]", "values": [
      {"measurement": "NF-κB inhibition activity", "setting": "NF-κB", "result": "high activities"},
      {"measurement": "GR translocation activity", "setting": "GR", "result": "high activities"},
      {"measurement": "Rank GR translocation", "setting": "GR", "result": 4},
      {"measurement": "AUC/D", "setting": "[4]; CD1 mice, IV 10 mg/kg", "result": 345, "unit": "ng·h/mL"},
      {"measurement": "AUC/D", "setting": "[4]; CD1 mice, PO 50 mg/kg, 30% Labrafil", "result": 440, "unit": "ng·h/mL"}
    ]},
    {"smiles": "CC(=O)OCC(=O)[C@H]1[C@H](C)C[C@H]2[C@@H]3CCC4=CC(=O)C=C[C@]4(C)C3=CC[C@@]21C", "note": "[VBP7]", "values": [
      {"measurement": "NF-κB inhibition activity", "setting": "NF-κB", "result": "high activities"},
      {"measurement": "GR translocation activity", "setting": "GR", "result": "high activities"},
      {"measurement": "Rank GR translocation", "setting": "GR", "result": 7}
    ]},
    {"smiles": "C[C@@H]1C[C@H]2[C@@H]3CCC4=CC(=O)C=C[C@]4(C)C3=CC[C@]2(C)[C@@]1(O)C(=O)CO", "note": "[VBP15]", "values": [
      {"measurement": "NF-κB inhibition activity", "setting": "NF-κB", "result": "high activities"},
      {"measurement": "GR translocation activity", "setting": "GR", "result": "high activities"},
      {"measurement": "GRE-dependent gene transcription (luciferase)", "setting": "[1]", "result": "lack of transactivation properties; also recorded: lacks GRE-mediated transcriptional activity"},
      {"measurement": "Clobs", "setting": "[4]; [13]", "result": "18.8 (IV) mL/min/kg"},
      {"measurement": "Vssobs", "setting": "[4]; [13]", "result": "0.757 (IV) L/kg"},
      {"measurement": "AUC0, total, unbound", "setting": "[4]; Mouse 10 mpk IV", "result": "8842 (IV) h ng/mL"},
      {"measurement": "Cmax, total, unbound", "setting": "[4]; Mouse 10 mpk IV", "result": "11167 (IV) ng/mL"},
      {"measurement": "AUC0, total, unbound", "setting": "[4]; Mouse 50 mpk PO", "result": "32932 (PO) h ng/mL"},
      {"measurement": "Cmax, total, unbound", "setting": "[4]; Mouse 50 mpk PO, 50 mg/kg", "result": "6787 (PO) ng/mL"},
      {"measurement": "AUC0, total, unbound", "setting": "[5]; Rat 10 mpk IV", "result": "8339 (IV) h ng/mL"},
      {"measurement": "AUC0, total, unbound", "setting": "[5]; Rat 50 mpk PO", "result": "19937 (PO) h ng/mL"},
      {"measurement": "Cmax, total, unbound", "setting": "[5]; Rat 50 mpk PO, 50 mg/kg", "result": "2543 (PO) ng/mL"},
      {"measurement": "AUC0, total, unbound", "setting": "[6]; Dog 10 mpk IV", "result": "6791 (IV) h ng/mL"},
      {"measurement": "AUC0, total, unbound", "setting": "[6]; Dog 30 mpk PO", "result": "10844 (PO) h ng/mL"},
      {"measurement": "Cmax, total, unbound", "setting": "[6]; Dog 30 mpk PO, 30 mg/kg", "result": "814 (PO) ng/mL"},
      {"measurement": "Stability–microsomes, remaining at 1 h", "setting": "[7]", "result": "Rat = 35.4%"},
      {"measurement": "CYP1A2 induction", "setting": "CYP1A2", "result": "no induction"},
      {"measurement": "CYP3A4 induction", "setting": "CYP3A4", "result": "24–42%"},
      {"measurement": "Ames test", "setting": "Ames test", "result": "Negative"},
      {"measurement": "Micronucleus test", "setting": "Micronucleus test", "result": "Negative"},
      {"measurement": "number of metabolites identified", "setting": "[8]", "result": "Four"},
      {"measurement": "number of metabolites identified", "setting": "[9]", "result": "Four"},
      {"measurement": "number of metabolites identified", "setting": "[10]", "result": 3},
      {"measurement": "number of metabolites identified", "setting": "[11]", "result": 5}
    ]},
    {"smiles": "CC(=O)OCC(=O)[C@@]1(O)CC[C@@H]2[C@H]3CCC4=CC(=O)CC[C@]4(C)C3=CC[C@@]21C", "note": "[anecortave acetate, [2-[(8R,10S,13S,14R,17R)-17-hydroxy-10,13-dimethyl-3-oxo-2,6,7,8,12,14,15,16-octahydro-1H-cyclopenta[a]phenanthren-17-yl]-2-oxo-ethyl] acetate, reference compound]", "values": [
      {"measurement": "reduction in IOP", "setting": "[12]; best dose", "result": 31, "unit": "%"},
      {"measurement": "mean duration of IOP benefit", "setting": "[12]", "result": 56, "unit": "days"},
      {"measurement": "binding to the GR", "setting": "[2]", "result": "relatively high affinity binding"},
      {"measurement": "binding to the MR", "setting": "[3]", "result": "relatively high affinity binding"}
    ]},
    {"smiles": "C[C@]12C=CC(=O)C=C1CC[C@@H]1[C@@H]2[C@@H](O)C[C@@]2(C)[C@H]1CC[C@]2(O)C(=O)CO", "note": "[prednisolone, reference compound]", "values": [
      {"measurement": "GRE-dependent gene transcription (luciferase)", "setting": "[1]", "result": "significant dose-dependent response"}
    ]}
  ]
}
